Measurements taken from paper PMC5720837, “Identification of a 4-fluorobenzyl L-valinate amide benzoxaborole (AN11736) as a potential development candidate for the treatment of Animal African Trypanosomiasis (AAT)” (Bioorganic & Medicinal Chemistry Letters, 2018).

How the values were obtained:
[1] = system: T. v. parasites (STIB719/ILRAD560 strain); experiment: In vivo mouse model of T. vivax infection; parameters: species or system NMRI female mice; details: intraperitoneal, monitored 60 days post treatment
Description: (§1) Selected compounds were screened in both mouse and bovine in vitro metabolic stability assays (mouse S9 and bovine S9), as summarized in Table 2. These two species were chosen because the primary in vivo assays were conducted in mice, and the target animal of this research program is cattle. […] We evaluated the efficacy of selected compounds in two in vivo mouse models of infection, against T. congolense and T. vivax, respectively. Mice were infected with either 1 × 10^5 T. c. parasites or 1 × 10^4 T. v. parasites, and then treated with a test compound via intraperitoneal administration for 1, 2 or 4 consecutive days. The mice were then monitored for the presence of parasitemia for up to 60 days post treatment.[7] We tested in T. c. model first, then followed up with T. v. for interesting compounds. […] We selected compound 5 (AN11736) to progress to exploratory studies to determine the efficacy and safety in a preliminary formulation against induced infections of T. vivax and T. congolense in cattle.[8]
(§2) [7] Methods for testing compound efficacy in mouse models: In vivo mouse efficacy studies were performed at the Swiss TPH, using established mouse models of infection for T. c. and T. v. NMRI female mice were independently infected either with 1 × 10^5T. c. parasites/mouse (STIB736/IL1180 strain) or 1 × 10^4T. v. parasites/mouse (STIB719/ILRAD560 strain) using an intraperitoneal route. Parasitemia was allowed to develop over 7 days (T. c.) or 3 days (T. v.), respectively, before treatment was administered. Compounds were administered via intraperitoneal injection in 10% DMSO/water. Four mice were used per treatment group. Mice were monitored for the presence of trypanosomes, via tail blood examination microscopically with twice-per-week parasitemia checks for 60 days post treatment. Parasitemia was graded on a scale of 0–3, with 0 indicating no trypanosomes seen in 20 fields of view, 1 indicating the presence of 1–5 trypanosomes per field, 2 indicating the presence of 6–20 trypanosomes per field and 3 indicating greater than 20 trypanosomes per field. Mice scoring 2 or 3 were immediately euthanized. After 60 days, aparasitemic mice were considered cured. Untreated control mice survive on average for 10 and 6 days post infection for T. c. and T. v., respectively. All in vivo mouse experiments were conducted in accordance with the strict guidelines set out by the Swiss Federal Veterinary Office, under the ethical approval of license number #2813.

[2] = system: T. c. parasites (STIB736/IL1180 strain); experiment: In vivo mouse model of T. congolense infection; parameters: species or system NMRI female mice; details: intraperitoneal, monitored 60 days post treatment
Description: as §1, §2

[3] = system: Trypanosoma vivax (T. vivax STIB719/ILRAD 560 strain), bloodstream form; experiment: Whole cell Alamar Blue assay, T. vivax (48 h ex vivo); type: cell-based; details: T. vivax STIB719/ILRAD 560, 48 h ex vivo Alamar Blue assay; for IC50: Trypanosoma vivax
Description: (§3) Activity of compounds 1–71 against T. congolense and T. vivax was determined using the whole cell assays as described ^6 and their IC50 values are summarized in Table 1.
(§4) [6] Assay methods for determination of T. c. and T. v. […] Culture media consisted of complete HMI-9 (IMDM) with 20% bovine serum. To ensure log growth phase, trypanosomes were sub-cultured at appropriate dilutions every 2–3 days. Bloodstream form Trypanosoma vivax (T. vivax) cannot be cultured axenically, therefore trypanosomes (T. vivax STIB719/ILRAD 560 strain) were harvested from a highly parasitemia mouse via cardiac puncture and used directly in the ex vivo drug sensitivity assay on the same day. […] Parasite starting concentrations of 2 × 10^5 (T. c.) and 4 × 10^5 (T. v.) were calculated respectively, using a cell analyzer system or haemo-cytometer, followed by quantification at 536 nm excitation and 588 nm emission wavelengths using a […] reader. Test compounds were prepared as 10 mg/mL DMSO stocks for each assay run. Compounds were assayed in at least three separate, independent test runs and an 11-point dilution curve was used to determine the IC50 values. Data points were averaged to generate sigmoidal dose-response curves and IC50 values were determined using Softmax Pro 5.2 software.

[4] = system: Trypanosoma congolense (T. congolense IL-3000 strain), bloodstream form; experiment: Whole cell Alamar Blue assay, T. congolense (72 h in vitro); type: cell-based; details: Trypanosoma congolense, 72 h, T. congolense IL-3000, 72 h in vitro Alamar Blue assay
Description: as §3, §4

[5] = In vitro metabolic stability, bovine S9; type: in vitro ADME; details: S9 fraction
Description: as §1

[6] = In vitro metabolic stability, mouse S9; type: in vitro ADME; details: S9 fraction
Description: as §1

| SMILES | Efficacy in mouse model T. v., n/m (mice survived / total mice in group) ([1]; 1 × 10 mg/kg) | Efficacy in mouse model T. v., n/m (mice survived / total mice in group) ([1]; 4 × 10 mg/kg) | Efficacy in mouse model T. c., n/m (mice survived / total mice in group) ([2]; 2 × 10 mg/kg) | IC50 [3] [nM] | IC50 [4] [nM] | Efficacy in mouse model T. c., n/m (mice survived / total mice in group) ([2]; 1 × 10 mg/kg) | microsomal CLint [5] [µL/min/mg] | microsomal CLint [6] [µL/min/mg] | IC50 (nM) T. v. [3] | Efficacy in mouse model T. c., n/m (mice survived / total mice in group) ([2]; 4 × 10 mg/kg) |
| --- | --- | --- | --- | --- | --- | --- | --- | --- | --- | --- |
| CC(C)[C@H](NC(=O)c1ccc2c(c1)B(O)OC2)C(=O)OCc1ccccc1 [Compound 2] | 1/5 | 5/5 | 0/5 (2 × 10) | 2 | 2 | – | – | – | – | – |
| Cc1c(C(=O)N[C@H](C(=O)OCc2ccc3ncccc3c2)C(C)C)ccc2c1B(O)OC2 [Compound 46] | – | – | – | 0.24 | 0.42 | 1/4 (1 × 10) | 7 | 7.4 | – | – |
| CC(C)[C@H](NC(=O)c1ccc2c(c1C(F)F)B(O)OC2)C(=O)OCc1ccc(F)cc1 [Compound 22] | – | – | – | 0.92 | 0.67 | 0/4 (1 × 10) | 0.9 | 1.4 | – | – |
| Cc1c(C(=O)N[C@H](C(=O)OCc2ccc(F)cn2)C(C)C)ccc2c1B(O)OC2 [Compound 35] | – | – | – | 0.09 | 0.15 | 0/4 (1 × 10) | 7.8 | 5.2 | – | – |
| CC(C)c1c(C(=O)N[C@H](C(=O)OCc2ccc(F)cc2)C(C)C)ccc2c1B(O)OC2 [Compound 26] | – | – | – | 0.05 | 2.3 | 0/4 (1 × 10) | 32 | 32 | – | – |
| Cc1c(C(=O)N[C@H](C(=O)OCc2cnc3ccccc3n2)C(C)C)ccc2c1B(O)OC2 [Compound 47] | – | – | – | 0.081 | 0.2 | 0/4 (1 × 10) | 10 | 4.8 | – | – |
| Cc1c(C(=O)N[C@H](C(=O)OCc2ccc(F)c(C(F)(F)F)c2)C(C)C)ccc2c1B(O)OC2 [Compound 17] | – | – | – | 0.04 | 0.21 | 0/4 (1 × 10) | 10 | 14 | – | – |
| Cc1c(C(=O)N[C@H](C(=O)OCc2nccc(C(F)(F)F)n2)C(C)C)ccc2c1B(O)OC2 [Compound 41] | – | – | – | 0.11 | 0.78 | 0/4 (1 × 10) | 1.8 | 1.3 | – | – |
| Cc1c(C(=O)N[C@H](C(=O)OCc2cccc(C#N)c2)C(C)C)ccc2c1B(O)OC2 [Compound 14] | – | – | – | 0.06 | 0.1 | 0/4 (1 × 10) | 2.7 | 9.1 | – | – |
| Cc1c(C(=O)N[C@H](C(=O)OCc2ccc(F)c(Cl)c2)C(C)C)ccc2c1B(O)OC2 [Compound 16] | – | – | 4/4 | 0.07 | 0.08 | 1/4 | 8.9 | 15 | – | – |
| Cc1c(C(=O)NC2(C(=O)OCc3ccc(F)cc3)CC2)ccc2c1B(O)OC2 [Compound 31] | – | – | – | 18 | 0.13 | 0/4 (1 × 10) | < 1 | < 1 | decreased activity | – |
| CCc1c(C(=O)N[C@H](C(=O)OCc2ccc(F)cc2)C(C)C)ccc2c1B(O)OC2 [Compound 24] | – | – | 1/4 (2 × 10) | 0.05 | 0.11 | – | 23 | 21 | – | – |
| Cc1c(C(=O)N[C@H](C(=O)OCc2cccc(CN3CCOCC3)c2)C(C)C)ccc2c1B(O)OC2 [Compound 53] | – | – | – | 0.35 | 0.51 | 0/4 (1 × 10) | 6.8 | 5.4 | – | – |
| COC(=O)[C@@H](NC(=O)c1ccc2c(c1C)B(O)OC2)C(C)C [Compound 55] | – | – | – | 3.3 | 4.2 | 0/4 (1 × 10) | 3.1 | < 1 | – | – |
| Cc1c(C(=O)N[C@H](C(=O)OCc2ccc(S(=O)(=O)N3CCN(C)CC3)cc2)C(C)C)ccc2c1B(O)OC2 [Compound 54] | – | – | – | 0.37 | 1 | 0/4 (1 × 10) | 3.8 | 5.5 | – | – |
| Cc1c(C(=O)N[C@H](C(=O)OCc2ccc(F)cc2)C(C)(C)O)ccc2c1B(O)OC2 [Compound 29] | – | – | – | 0.1 | 0.26 | 0/4 (1 × 10) | < 1 | < 1 | – | – |
| Cc1c(C(=O)N[C@H](C(=O)OCc2ccc(S(C)(=O)=O)cc2)C(C)C)ccc2c1B(O)OC2 [Compound 19] | – | – | – | 0.44 | 0.61 | 0/4 (1 × 10) | 1.3 | 2.6 | – | – |
| Cc1c(C(=O)NC(C(=O)OCc2ccc(F)cc2)C(C)(C)F)ccc2c1B(O)OC2 (stereo not drawn) [Compound 30] | – | – | – | 0.25 | 0.09 | 0/4 (1 × 10) | 3.1 | 3.7 | – | – |
| Cc1c(C(=O)N[C@H](C(=O)OCc2cnccn2)C(C)C)ccc2c1B(O)OC2 [Compound 39] | – | – | – | 0.24 | 0.57 | 0/4 (1 × 10) | 3.9 | 1.6 | – | – |
| CC(C)[C@H](NC(=O)c1ccc2c(c1)B(O)OC2)C(=O)OCc1ccc(F)cc1 [Compound 20] | – | – | – | 1 | 3 | – | 1.3 | 1.5 | – | 0/5 (4 × 10) |
